Among the data in US8957074B2 (Novartis AG, priority 2010, dated 2015) are IC50 values, retold here.

The structures appear in SMILES notation. Read-outs that look alike come from different tables or passages of the source.

Test [1] relates to phosphorylation of pRb at the Ser780 site in JeKo-1 mantle cell lymphoma cells. Nature of the test: CDK4 cellular assay: ELISA of pRb phosphorylation at Ser780 in JeKo-1 cells. Format: cell-based. A general note: An ELISA detects its analyte on a solid surface through an enzyme-linked reagent.
The target in test [2] is CDK4/cyclin D1 (Homo sapiens (Human), UniProt P11802). Nature of the test: CDK4/cyclin D1 enzymatic activity assay (TR-FRET, phosphorylation of pRb at Ser780). Format: biochemical. Summed up:
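Phosphorylation at pRb Ser780, detected by TR-FRET, gave IC50s and kinetics. Enzyme: baculovirus/Sf21-expressed human CDK4/cyclin D1. ATP at 3 μM initiated the reaction; EDTA (pH 8.0) stopped it after 60 min at 22° C.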

For test [3], the target named is CDK1/cyclin B (Homo sapiens (Human), UniProt P06493). Kind of test: CDK1/cyclin B enzymatic activity assay (IMAP-FP). Format: biochemical. From the text:
CDK1/Cyclin B Enzymatic Activity Assay
A 384-well microtiter IMAP-FP™ (Molecular Devices Trade Mark Technology) endpoint assay was used for CDK1/cyclin B kinase activity measurements. The same assay was used for IC50 determination of small molecule inhibitors.

Setting [4] is: Homo sapiens, JeKo-1, JeKo-1 cells, p-pRb % inhibition adjusted with total pRb levels, read-out: Normalized cellular ppRb inhibition IC50.
[5] abbreviates: Homo sapiens, JeKo-1, JeKo-1 cells, p-pRb Ser780 ELISA, non-normalized, read-out: Cellular ppRb inhibition IC50.
The mark [6] stands for this setting: 0.3 nM CDK4/cyclin D1, 150 nM biotin-pRb (773-924), 3 μM ATP, 60 min at 22° C., read-out: Biochemical CDK4 enzyme IC50.
Where [7] appears, read: […] CDK1/cyclin B, 100 nM Tamra Histone-H1 peptide, 20 μM ATP, 120 min at room temperature, read-out: Biochemical CDK1 enzyme IC50.
[8] abbreviates: Homo sapiens, JeKo-1 cells, p-pRb % inhibition adjusted with total pRb levels, read-out: Normalized cellular ppRb inhibition IC50.
Setting [9] is: Homo sapiens, JeKo-1 cells, p-pRb Ser780 ELISA, non-normalized, read-out: Cellular ppRb inhibition IC50.

CDK4/cyclin D1, sequence (P11802 whole entry): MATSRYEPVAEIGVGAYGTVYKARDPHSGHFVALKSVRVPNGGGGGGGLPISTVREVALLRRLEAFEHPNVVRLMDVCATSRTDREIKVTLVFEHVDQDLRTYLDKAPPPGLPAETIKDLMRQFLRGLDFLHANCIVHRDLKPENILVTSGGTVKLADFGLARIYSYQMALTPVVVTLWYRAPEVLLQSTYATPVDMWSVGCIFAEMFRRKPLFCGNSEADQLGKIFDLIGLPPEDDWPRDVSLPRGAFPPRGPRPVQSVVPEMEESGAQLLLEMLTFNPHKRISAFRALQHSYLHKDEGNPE
CDK4/cyclin D1, sequence (P24385 whole entry partner): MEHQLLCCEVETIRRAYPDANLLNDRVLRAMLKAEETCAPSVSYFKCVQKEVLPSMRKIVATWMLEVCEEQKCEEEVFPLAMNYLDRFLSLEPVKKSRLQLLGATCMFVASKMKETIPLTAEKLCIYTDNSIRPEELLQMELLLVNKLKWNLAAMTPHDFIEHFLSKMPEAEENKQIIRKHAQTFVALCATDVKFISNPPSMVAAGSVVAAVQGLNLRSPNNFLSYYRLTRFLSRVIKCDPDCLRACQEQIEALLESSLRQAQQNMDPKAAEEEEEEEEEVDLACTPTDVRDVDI
CDK1/cyclin B, sequence (P06493 whole entry, species assumed): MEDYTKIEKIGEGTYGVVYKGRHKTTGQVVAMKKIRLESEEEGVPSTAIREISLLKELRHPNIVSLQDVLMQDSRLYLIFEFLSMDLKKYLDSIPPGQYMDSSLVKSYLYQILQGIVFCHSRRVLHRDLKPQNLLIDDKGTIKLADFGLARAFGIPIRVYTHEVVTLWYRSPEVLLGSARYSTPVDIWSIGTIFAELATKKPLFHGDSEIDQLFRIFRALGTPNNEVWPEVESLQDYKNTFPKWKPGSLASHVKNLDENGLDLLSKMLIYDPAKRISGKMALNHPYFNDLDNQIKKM
CDK1/cyclin B, sequence (P14635 whole entry partner, species assumed): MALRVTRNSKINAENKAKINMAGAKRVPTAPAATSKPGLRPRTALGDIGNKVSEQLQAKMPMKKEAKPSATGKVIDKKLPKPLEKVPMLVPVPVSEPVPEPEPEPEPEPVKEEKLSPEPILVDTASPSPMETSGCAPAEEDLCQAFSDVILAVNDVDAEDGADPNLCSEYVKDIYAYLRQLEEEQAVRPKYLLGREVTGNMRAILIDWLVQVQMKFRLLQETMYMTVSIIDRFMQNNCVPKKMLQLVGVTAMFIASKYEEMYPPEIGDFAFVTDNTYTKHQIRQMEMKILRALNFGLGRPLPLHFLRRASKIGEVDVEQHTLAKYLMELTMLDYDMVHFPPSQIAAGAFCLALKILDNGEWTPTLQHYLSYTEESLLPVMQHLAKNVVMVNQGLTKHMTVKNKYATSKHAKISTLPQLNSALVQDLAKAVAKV

Take `CN(C)C(=O)c1cc2cnc(Nc3ccc(C(=O)N4CCC[C@@H]5CCN[C@@H]5C4)cn3)nc2n1C1CCCC1` [Example 25, 7-Cyclopentyl-2-[5-((3aR,8aS)-octahydro-pyrrolo[2,3-c]azepine-7-carbonyl)-pyridin-2-ylamino]-7H-pyrrolo[2,3-d]pyrimidine-6-carboxylic acid dimethylamide]: the IC50 is 22 nM in test [1] (setting [4]), 20 nM in test [1] (setting [5]), 8 nM in test [2] (setting [6]) and over 15000 nM in test [3] (setting [7]).
Regarding `CN(C)C(=O)c1cc2cnc(Nc3ccc(N4C[C@@H]5CC[C@H](CC4=O)N5S(C)(=O)=O)cn3)nc2n1C1CCCC1` [Example 137, 7-cyclopentyl-N,N-dimethyl-2-(5-((1S,6R)-9-(methylsulfonyl)-4-oxo-3,9-diazabicyclo[4.2.1]nonan-3-yl)pyridin-2-ylamino)-7H-pyrrolo[2,3-d]pyrimidine-6-carboxamide], the IC50 in test [1] (setting [8]) was 150 nM; in test [1] (setting [9]), 155 nM; in test [2] (setting [6]) it was 62 nM; in test [3] (setting [7]) it was over 15000 nM.
As for `CC(CO)N1C2CCC1CN(C(=O)c1ccc(Nc3ncc4cc(C(=O)N(C)C)n(C5CCCC5)c4n3)nc1)C2` (centres unmarked) [Example 35, 7-cyclopentyl-2-(5-(8-(1-hydroxypropan-2-yl)-3,8-diazabicyclo[3.2.1]octane-3-carbonyl)pyridin-2-ylamino)-N,N-dimethyl-7H-pyrrolo[2,3-d]pyrimidine-6-carboxamide], the IC50 in test [1] (setting [4]) was 197 nM; in test [1] (setting [5]), 69 nM; in test [2] (setting [6]), 26 nM; in test [3] (setting [7]), over 15000 nM.
`CN(C)C(=O)c1cc2cnc(Nc3ccc(N4C[C@@]5(CCCNCC5)OC4=O)cn3)nc2n1C1CCCC1` [Example 105, 7-Cyclopentyl-2-[5-((S)-2-oxo-1-oxa-3,8-diaza-spiro[4.6]undec-3-yl)-pyridin-2-ylamino]-7H-pyrrolo[2,3-d]pyrimidine-6-carboxylic acid dimethylamide]: the IC50 was 100 nM in test [1] (setting [8]), 61 nM in test [1] (setting [9]), 12 nM in test [2] (setting [6]) and over 15000 nM in test [3] (setting [7]).
The matching figures for `CN(C)C(=O)c1cc2cnc(Nc3ccc(C(=O)N4C[C@@H]5[C@@H](N)[C@@H]5C4)cn3)nc2n1C1CCCC1` [Example 42, 2-[5-((1S,5R,6S)-6-Amino-3-aza-bicyclo[3.1.0]hexane-3-carbonyl)-pyridin-2-ylamino]-7-cyclopentyl-7H-pyrrolo[2,3-d]pyrimidine-6-carboxylic acid dimethylamide]: 241 nM, 86 nM, 15 nM and over 15000 nM.
For the compound `CN(C)C(=O)c1cc2cnc(Nc3ccc(C(=O)N4CCC5COCC(C4)N5)cn3)nc2n1C1CCCC1` (centres unmarked) [Example 75, 7-Cyclopentyl-2-[5-(8-oxa-3,10-diaza-bicyclo[4.3.1]decane-3-carbonyl)-pyridin-2-ylamino]-7H-pyrrolo[2,3-d]pyrimidine-6-carboxylic acid dimethylamide], the IC50 was 525 nM in test [1] (setting [4]), 81 nM in test [1] (setting [5]), 47 nM in test [2] and over 15000 nM in test [3].
In the case of `CN(C)C(=O)c1cc2cnc(Nc3ccc(C(=O)N4CC5CNC(C5)C4)cn3)nc2n1C1CCCC1` (racemic) [Example 9, 7-Cyclopentyl-2-[5-(3,6-diaza-bicyclo[3.2.1]octane-3-carbonyl)-pyridin-2-ylamino]-7H-pyrrolo[2,3-d]pyrimidine-6-carboxylic acid dimethylamide], the IC50 in test [1] (setting [4]) is 120 nM; in test [1] (setting [5]), 55 nM; in test [2] (setting [6]), under 4 nM; in test [3] (setting [7]) it was 7100 nM.
The matching figures for `CC(=O)N1[C@@H]2CC[C@H]1CN(c1ccc(Nc3ncc4cc(C(=O)N(C)C)n(C5CCCC5)c4n3)nc1)C(=O)C2` [Example 139, 2-(5-((1S,6R)-9-acetyl-4-oxo-3,9-diazabicyclo[4.2.1]nonan-3-yl)pyridin-2-ylamino)-7-cyclopentyl-N,N-dimethyl-7H-pyrrolo[2,3-d]pyrimidine-6-carboxamide]: 638 nM, 605 nM, 114 nM and over 15000 nM.
Take `CN(C)C(=O)c1cc2cnc(Nc3ccc(N4CCN5CCCC5C4=O)cn3)nc2n1C1CCCCC1` (centres unmarked) [Example 98, 7-Cyclohexyl-2-[5-(1-oxo-hexahydro-pyrrolo[1,2-a]pyrazin-2-yl)-pyridin-2-ylamino]-7H-pyrrolo[2,3-d]pyrimidine-6-carboxylic acid dimethylamide]: the IC50 is 136 to 266 nM in test [1] (Homo sapiens, JeKo-1, read-out: Cellular ppRb inhibition IC50); 291 to 887 nM in test [1] (Homo sapiens, JeKo-1, read-out: Normalized cellular ppRb inhibition IC50); 16 to 98 nM in test [2] (setting [6]); over 15000 nM in test [3] (setting [7]).
With `CN(C)C(=O)c1cc2cnc(Nc3ccc(N4C[C@]5(CCCNCC5)OC4=O)cn3)nc2n1C1CCCC1` [Example 106, 7-Cyclopentyl-2-[5-((R)-2-oxo-1-oxa-3,8-diaza-spiro[4.6]undec-3-yl)-pyridin-2-ylamino]-7H-pyrrolo[2,3-d]pyrimidine-6-carboxylic acid dimethylamide], the IC50 in test [1] (setting [8]) was 114 nM; in test [1] (setting [9]), 70 nM; in test [2] (setting [6]) it was 15 nM; in test [3] (setting [7]), over 15000 nM.
The matching figures for `CCOC(=O)N1C2CCC1CN(C(=O)c1ccc(Nc3ncc4cc(C(=O)N(C)C)n(C5CCCC5)c4n3)nc1)C2` [Example 64, 3-[6-(7-Cyclopentyl-6-dimethylcarbamoyl-7H-pyrrolo[2,3-d]pyrimidin-2-ylamino)-pyridine-3-carbonyl]-3,8-diaza-bicyclo[3.2.1]octane-8-carboxylic acid ethyl ester]: 771 to 2200 nM, 323 to 466 nM, 72 to 179 nM and over 15000 nM.
As to `CN(C)C(=O)c1cc2cnc(Nc3ccc(C(=O)N4CC5CCC(C4)N5)cn3)nc2n1C1CCCOC1` (centres unmarked) [Example 65, 2-(5-(3,8-diazabicyclo[3.2.1]octane-3-carbonyl)pyridin-2-ylamino)-N,N-dimethyl-7-(tetrahydro-2H-pyran-3-yl)-7H-pyrrolo[2,3-d]pyrimidine-6-carboxamide], the IC50 in test [1] (setting [8]) is 132 to 458 nM; in test [1] (setting [9]) it was 126 to 211 nM; in test [2] (setting [6]), 76 nM; in test [3] (setting [7]), over 15000 nM.
On to `CN(C)C(=O)c1cc2cnc(Nc3ccc(N4C[C@@H]5CNC[C@@H]5C4=O)cn3)nc2n1C1CCCC1` [Example 85, 7-cyclopentyl-N,N-dimethyl-2-(5-((3aS,6aR)-1-oxohexahydropyrrolo[3,4-c]pyrrol-2(1H)-yl)pyridin-2-ylamino)-7H-pyrrolo[2,3-d]pyrimidine-6-carboxamide], for which the concentration for half-maximal inhibition (IC50) lay within 9 to 21 nM in test [1] (setting [4]); 5 to 17 nM in test [1] (setting [5]); 5 to 7 nM in test [2] (setting [6]); 8980 to 11200 nM in test [3] (0.25 nM CDK1/cyclin B, 100 nM Tamra Histone-H1 peptide, 20 μM ATP, 120 min at room temperature, read-out: Biochemical CDK1 enzyme IC50).
For `CNC(=O)c1cc2cnc(Nc3ccc(C(=O)N4C[C@@H]5C[C@H]4CN5)cn3)nc2n1C1CCCC1` [Example 24, 7-Cyclopentyl-2-[5-((S,S)-2,5-diaza-bicyclo[2.2.1]heptane-2-carbonyl)-pyridin-2-ylamino]-7H-pyrrolo[2,3-d]pyrimidine-6-carboxylic acid methylamide], the IC50 in test [1] (JeKo-1 cells, p-pRb % inhibition adjusted with total pRb levels, read-out: Normalized cellular ppRb inhibition IC50) is 272 nM; in test [1] (JeKo-1 cells, p-pRb Ser780 ELISA, non-normalized, read-out: Cellular ppRb inhibition IC50), 266 nM; in test [2] (setting [6]), 49 nM; in test [3] (setting [7]) it was over 15000 nM.
Turning to `CN(C)C(=O)c1cc2cnc(Nc3ccc(C(=O)N4CC5(CNC5)C4)cn3)nc2n1C1CCCC1` [Example 41, 2-(5-(2,6-diazaspiro[3.3]heptane-2-carbonyl)pyridin-2-ylamino)-7-cyclopentyl-N,N-dimethyl-7H-pyrrolo[2,3-d]pyrimidine-6-carboxamide], the IC50 in test [1] (setting [8]) is 132 to 415 nM; in test [1] (setting [9]), 112 to 228 nM; in test [2] (setting [6]), 15 to 17 nM; in test [3] (setting [7]), over 15000 nM.
As for `CN1CCCC2(C1)CN(c1ccc(Nc3ncc4cc(C(=O)N(C)C)n(C5CCCC5)c4n3)nc1)C(=O)O2` (centres unmarked) [Example 108, 7-cyclopentyl-N,N-dimethyl-2-(5-(7-methyl-2-oxo-1-oxa-3,7-diazaspiro[4.5]decan-3-yl)pyridin-2-ylamino)-7H-pyrrolo[2,3-d]pyrimidine-6-carboxamide], the IC50 in test [1] (setting [4]) is 69 nM; in test [1] (setting [5]) it was 61 nM; in test [2] (setting [6]) it was 13 nM; in test [3] (setting [7]), over 15000 nM.
Consider `CN(C)C(=O)c1cc2cnc(Nc3ccc(N4CC5(CCCNC5)OC4=O)cn3)nc2n1C1CCCC1` (centres unmarked) [Example 107, 7-cyclopentyl-N,N-dimethyl-2-(5-(2-oxo-1-oxa-3,7-diazaspiro[4.5]decan-3-yl)pyridin-2-ylamino)-7H-pyrrolo[2,3-d]pyrimidine-6-carboxamide], for which the IC50 in test [1] (setting [8]) was 37 to 114 nM; in test [1] (setting [9]), 13 to 49 nM; in test [2] (setting [6]) it was 9 nM; in test [3] (setting [7]) it was over 15000 nM.

The term IC50 denotes the midpoint of a concentration-inhibition curve.
